In brackets after ≈: the same amount, converted by molar mass. Counter-ions that a name gives are not always drawn.
Assays:
[1] = system: Bacteroides fragilis sp. fragilis 103; experiment: Agar dilution susceptibility of anaerobic bacteria (Chart 1); type: cell-based; settings: agar dilution, 37° C., Bacteroides fragilis sp. fragilis 103; for MIC: Bacteroides fragilis, 24 h, read-out: 24 Hr. MIC
[2] = system: Bacteroides fragilis sp. fragilis 108; experiment: as above; type: cell-based; settings: agar dilution, 37° C., Bacteroides fragilis sp. fragilis 108; for MIC: Bacteroides fragilis, 24 h, read-out: 24 Hr. MIC
[3] = system: Bacteroides fragilis sp. fragilis 111; experiment: as above; type: cell-based; settings: agar dilution, 37° C., Bacteroides fragilis sp. fragilis 111; for MIC: Bacteroides fragilis, 24 h, read-out: 24 Hr. MIC
[4] = system: Bacteroides fragilis sp. fragilis 1470; experiment: as above; type: cell-based; settings: agar dilution, 37° C., Bacteroides fragilis sp. fragilis 1470; for MIC: Bacteroides fragilis, 24 h, read-out: 24 Hr. MIC
[5] = system: Bacteroides fragilis sp. fragilis 9; experiment: as above; type: cell-based; settings: agar dilution, 37° C., Bacteroides fragilis sp. fragilis 9; for MIC: Bacteroides fragilis, 24 h, read-out: 24 Hr. MIC
[6] = system: Bacteroides fragilis sp. vulgatis 1563; experiment: as above; type: cell-based; settings: agar dilution, 37° C., Bacteroides fragilis sp. vulgatis 1563; for MIC: Bacteroides fragilis, 24 h, read-out: 24 Hr. MIC
[7] = system: Bacteroides fragilis sp. thetaiotaomicron 1438; experiment: as above; type: cell-based; settings: agar dilution, 37° C., Bacteroides fragilis sp. thetaiotaomicron 1438; for MIC: Bacteroides fragilis, 24 h, read-out: 24 Hr. MIC
[8] = system: Clostridium septicum 1128; experiment: as above; type: cell-based; settings: 37° C.; for MIC: Clostridium septicum, 1128, 24 h
Procedure: The susceptibility of anaerobic bacteria, both gram positive and gram negative, to a representative number of the novel compounds of this application was determined using the agar dilution method. The bacteria used were isolated from patients hospitalized at the Indiana Univerisity Medical Center. The isolates were identified in the anaerobe laboratory of the Medical Center by the criteria established by Dowell et al., Laboratory Methods in Anaerobic Bacteriology. Public Health Serv. Publ. NO. 1803 (1968) [Center for Disease Control, Atlanta, Ga.]; and by Smith et al., The Pathogenic Anaerobic Bacteria, pages 96- 136 (1968) [Charles C. Thomas, Publisher, Springfield, Ill.]. All the organisms were maintained in chopped meat glucose medium (Scott Labs) at room temperature.
The method used for the agar dilution tests was based on the studies of Sutter et al., Antimicrob. Ag. Chemother. 3, 188-193 (1973). The strains of anaerobic bacteria were grown in 16×× 120 mm. tubes for 16 to 18 hours in Thioglycolate medium without indicator-- 135C (Becton, Dickinson and Co.), to which was added 5 mcg. of hemin per milliliter prior to autoclaving, plus 1 mg. of sodium bicarbonate and 0.1 mcg. of filter-sterilized menadione per milliliter after autoclaving. The strains were adjusted to the turbidity of the No. 1 McFarland standard in Thioglycolate medium without indicator-- 135C containing an additional 0.13 percent Bacto-agar (Difco). Each strain was then applied to the surface of the petri plate (100 mm× 15 mm.) by means of a replicator.
For the agar dilution studies, two-fold dilutions of the test compounds were prepared in deionized water to which was then added laked sheep blood and filter-sterilized menadione so the concentrations after the agar dilution were 5 percent and 10 mcg./ml. respectively. An equal volume of double strength Brucella agar (Becton, Dickinson and Co.) was mixed with each dilution in a water bath held at 50° C. and then poured onto the petri dishes.
All of the procedures were done inside a plastic glove box, except for the incubation of the growth tubes and the pouring of the plates. After the plates hardened, they were put inside the glove box for a minimum of 2 hours before they were inoculated. Generally, the glove box procedures of Aranki et al., Applied Microbiology 17, 568-576 (1969), were followed, but the following modifications were used. Dry materials were introduced into the glove box by evacuating the lock to 28 inches of mercury and filling once with nitrogen gas, followed by evacuating in the same manner and filling with an 80 percent nitrogen plus 10 percent CO2 plus 10 percent hydrogen gas mixture. Liquid media and agar plates were introduced into the glove box by evacuating the lock to 10 inches of mercury and filling with gas four times. The nitrogen gas was used to fill the lock for the first two cycles of evacuation, with the gas mixture described above used for the final two fillings.
All the plates were incubated at 37° C. in Gas Pak jars (Becton, Dickinson and Co.) containing palladium-coated alumina catalysts (reactivated after each use). The results of the agar dilution tests were read after about 24 hours of incubation. The minimum inhibitory concentration (MIC) was recorded as the lowest concentration of test compound at which there was no growth.
The test compounds are identified by the number of the example describing their preparation. The antibiotics clindamycin (C), and erythromycin (E) were also run simultaneously with the novel compounds of this application,for comparison purposes, and the results are included in Chart 1 below.

[9] = system: Peptostreptococcus intermedius 1264; experiment: as above; type: cell-based; settings: agar dilution, 37° C., Peptostreptococcus intermedius 1264; for MIC: Peptostreptococcus, 1264, 24 h, read-out: 24 Hr. MIC
[10] = system: Propionibacterium acnes 79; experiment: as above; type: cell-based; settings: agar dilution, 37° C., Propionibacterium acnes 79; for MIC: Cutibacterium acnes, 79, 24 h, read-out: 24 Hr. MIC
[11] = system: Bacteroides melaninogenicus 2736; experiment: as above; type: cell-based; settings: agar dilution, 37° C., Bacteroides melaninogenicus 2736; for MIC: 2736, 24 h, read-out: 24 Hr. MIC
[12] = system: Bacteroides vulgatis 1211; experiment: as above; type: cell-based; settings: agar dilution, 37° C., Bacteroides vulgatis 1211; for MIC: Bacteroides, 1211, 24 h, read-out: 24 Hr. MIC
Salmonella typhimurium = experiment: Control of infections caused by Salmonella typhimurium in chickens (Chart 2); type: in vivo; settings: 60 mg./kg. subcutaneous, day-old chicks, 5 per group, 6 days observation
Procedure: The efficacy of the novel compounds in the control of infections caused by Salmonella typhimurium in chickens was evaluated in the following manner. The test was carried out using day-old chicks weighing approximately 35 g. each. The chicks were divided into groups of 5 chicks per each dosage level. A portion of the chicks received the test compound which was suspended in 0.2 ml. of polyethylene glycol 200 and administered subcutaneously in the neck. […] All the chicks were challenged with a 1:200 dilution of a culture of the organism, 0.1 ml. of the dilution being injected into each chick in the leg intramuscularly. […] The test compounds are identified in the same manner as set forth in experiment 1. In the chart, column 1 lists the compounds tested; column 2, the dosage of test compound in mg./kg.; and column 3, the survival ratio.

[13] = system: Bacteroides fragilis sp. fragilis 1451; experiment: Agar dilution susceptibility of anaerobic bacteria (Chart 1); type: cell-based; settings: agar dilution, 37° C., Bacteroides fragilis sp. fragilis 1451; for MIC: Bacteroides fragilis, 24 h, read-out: 24 Hr. MIC

For `CCOC(=O)C(=O)Nc1c(C#N)c(-c2ncc([N+](=O)[O-])n2C)nn1C` [Example 2, N-[4-Cyano-1-methyl-3-(1-methyl-5-nitroimidazol-2-yl)pyrazol-5-yl]oxamic acid, ethyl ester, sodium salt], the “24 Hr. MIC” value ([1]; sodium salt) was 0.125 µg/mL, the “24 Hr. MIC” value ([2]; sodium salt) was 0.25 µg/mL and the “24 Hr. MIC” value ([3]; sodium salt) was 0.25 µg/mL. The “24 Hr. MIC” value ([4]; sodium salt) was 0.25 µg/mL, the “24 Hr. MIC” value ([5]; sodium salt) was 0.5 µg/mL and the “24 Hr. MIC” value ([6]; sodium salt) was 0.5 µg/mL. The “24 Hr. MIC” value ([7]; sodium salt) was 0.25 µg/mL, the “24 Hr. MIC” value ([8]; sodium salt) was greater than 64 µg/mL and the “24 Hr. MIC” value ([9]; sodium salt) was greater than 64 µg/mL. For the same molecule, the “24 Hr. MIC” value ([10]; sodium salt) was greater than 64 µg/mL, the “24 Hr. MIC” value ([11]; sodium salt) was 0.5 µg/mL and the “24 Hr. MIC” value ([12]; sodium salt) was no more than 0.25 µg/mL. The “Survival Ratio” value (Salmonella typhimurium; sodium salt) was 2/5.

Molecule `Cn1nc(-c2ncc([N+](=O)[O-])n2C)c(C#N)c1NC(=O)C(=O)c1ccccc1` [Example 10, N-[4-cyano-1-methyl-3-(1-methyl-5-nitroimidazol-2-yl)pyrazol-5-yl]-2-phenylglyoxylamide] has an MIC [1] of no more than 0.03 µg/mL, an MIC [2] of no more than 0.03 µg/mL and an MIC [3] of no more than 0.03 µg/mL. For the same molecule, the “24 Hr. MIC” value [13] was no more than 0.03 µg/mL, the MIC [4] was no more than 0.03 µg/mL and the MIC [5] was no more than 0.03 µg/mL. For the same molecule, the “24 Hr. MIC” value [6] was 0.06 µg/mL, the “24 Hr. MIC” value [7] was no more than 0.03 µg/mL and the “24 Hr. MIC” value [8] was 1.0 µg/mL. For the same molecule, the MIC [9] was 64 µg/mL (≈ 169 µM), the MIC [10] was 64 µg/mL (≈ 169 µM) and the “24 Hr. MIC” value [11] was 2 µg/mL. The “24 Hr. MIC” value [12] was 4 µg/mL.

For `CCC[C@@H]1C[C@@H](C(=O)N[C@@H]([C@H]2O[C@H](SC)[C@H](O)[C@@H](O)[C@H]2O)[C@H](C)Cl)N(C)C1` [C, clindamycin, reference compound], the MIC [1] was no more than 0.06 µg/mL, the MIC [2] was 0.125 µg/mL (≈ 0.294 µM) and the MIC [3] was 1 µg/mL (≈ 2.35 µM). The MIC [13] was 1 µg/mL (≈ 2.35 µM), the MIC [4] was 0.25 µg/mL (≈ 0.588 µM) and the MIC [5] was 0.125 µg/mL (≈ 0.294 µM). For the same molecule, the MIC [6] was 0.125 µg/mL (≈ 0.294 µM), the MIC [7] was 0.5 µg/mL (≈ 1.18 µM) and the MIC [8] was 8 µg/mL (≈ 18.8 µM). It also gave an MIC [9] of 1 µg/mL (≈ 2.35 µM), an MIC [10] of no more than 0.5 µg/mL and an MIC [11] of no more than 0.5 µg/mL. For the same molecule, the MIC [12] was no more than 0.5 µg/mL.

Work on `Cn1nc(-c2ncc([N+](=O)[O-])n2C)c(C#N)c1NC(=O)C(=O)NN` [Example 6, 5-[4-Cyano-1-methyl-3-(1-methyl-5-nitroimidazol-2-yl)pyrazol5-yl]semioxamazide] yielded an MIC [1] of 0.06 µg/mL (≈ 0.18 µM), an MIC [2] of 0.5 µg/mL (≈ 1.5 µM) and an MIC [3] of 0.25 µg/mL (≈ 0.75 µM). It also gave an MIC [13] of 0.5 µg/mL (≈ 1.5 µM), an MIC [4] of 0.25 µg/mL (≈ 0.75 µM) and an MIC [5] of 0.25 µg/mL (≈ 0.75 µM). It also gave an MIC [6] of 0.125 µg/mL (≈ 0.375 µM), an MIC [7] of 1 µg/mL (≈ 3 µM) and an MIC [8] greater than 128 µg/mL. For the same molecule, the MIC [9] was 32 µg/mL (≈ 96 µM), the MIC [10] was 32 µg/mL (≈ 96 µM) and the MIC [11] was no more than 0.25 µg/mL. For the same molecule, the “24 Hr. MIC” value [12] was no more than 0.25 µg/mL and the “Survival Ratio” value (Salmonella typhimurium) was 5/5.

With `CCOC(=O)C(=O)Nc1c(C#N)c(-c2ncc([N+](=O)[O-])n2C)nn1C` [Example 1, N-[4-Cyano-1-methyl-3-(1-methyl-5-nitroimidazol-2-yl)pyrazol-5-yl]oxamic acid, ethyl ester] the “24 Hr. MIC” value [1] was no more than 0.03 µg/mL, the MIC [2] was 0.125 µg/mL (≈ 0.36 µM) and the MIC [3] was 0.125 µg/mL (≈ 0.36 µM). The MIC [13] was 0.25 µg/mL (≈ 0.72 µM), the MIC [4] was 0.125 µg/mL (≈ 0.36 µM) and the MIC [5] was 0.25 µg/mL (≈ 0.72 µM). For the same molecule, the “24 Hr. MIC” value [6] was 0.125 µg/mL, the MIC [7] was 0.25 µg/mL (≈ 0.72 µM) and the “24 Hr. MIC” value [8] was greater than 128 µg/mL. For the same molecule, the “24 Hr. MIC” value [9] was 16 µg/mL, the MIC [10] was 32 µg/mL (≈ 92.1 µM) and the MIC [11] was no more than 0.25 µg/mL. For the same molecule, the MIC [12] was no more than 0.25 µg/mL and the “Survival Ratio” value (Salmonella typhimurium) was 4/5.
